# Calls of active or inactive are those of the source.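 The calls were made as follows: active = a tumor-causing dose value with its tumor site reported for any sex and species group of a rodent or other animal cancer study; inconclusive = only studies judged inadequate by the national testing program; inactive = tested in at least one study, none positive.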
# Experiment: DSSTox (CPDBAS) Carcinogenic Potency Database Summary SingleCellCall Results
# Conditions: animal chronic carcinogenicity bioassays, CPDB summary call
# Summary of the method: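 Literature-derived summary: each substance receives an overall carcinogenic/non-carcinogenic category drawn from long-term bioassays in rats, mice, hamsters, dogs or primates, using the most positive sex-species experiment and minimal evidence criteria.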
row,SMILES,outcome
1,C=CCOCC1CO1 (centres undefined),active
2,O=NN(CCO)C(=O)NCCCl,active
3,C=CC,inactive
4,NC(=O)c1cnccn1,inactive
5,FC(F)(F)C(Cl)Cl,active
6,CN1C(=O)C[C@@H](C(=O)N[C@@H](Cc2cnc[nH]2)C(=O)N2CCC[C@H]2C(N)=O)NC1=O,inactive; active
7,CCCCCCCCCCCCCCCC(=O)OC/C=C(C)/C=C/C=C(C)/C=C/C1=C(C)CCCC1(C)C,inactive
8,CCC1CO1 (centres undefined),active; inactive
9,OCC(O)CCl (centres undefined),inactive
10,OB(O)O,inactive; active
11,C[C@H]1CCCC(=O)CCC/C=C/c2cc(O)cc(O)c2C(=O)O1,active
12,Cc1ccc(O)c(C(C)(C)C)c1,inactive
13,ClC1=C(Cl)C(Cl)(Cl)C(Cl)=C1Cl,inactive; active
14,ClC1=C(Cl)[C@]2(Cl)[C@@H]3[C@H]4C[C@H]([C@@H]5O[C@H]45)[C@@H]3[C@@]1(Cl)C2(Cl)Cl,inactive
15,O=NN1C[C@H](O)C[C@H]1C(=O)O,inactive
16,O=S(=O)(c1ccc(Cl)cc1)c1cc(Cl)c(Cl)cc1Cl,inactive
17,CC(=O)Nc1ccc(CC(=O)O)cc1,inactive
18,S=C(NC1CCCCC1)NC1CCCCC1,inactive; active
19,CCOC1=C(O)C(=O)O[C@@H]1[C@@H](O)CO,inactive
20,CCOC(N)=O,active; inactive
21,F,inactive
22,CCOP(=S)(OCC)Oc1ccc2c(C)c(Cl)c(=O)oc2c1,inactive
23,O=C(O)c1cc(O)c(O)c(O)c1,inactive
24,OCC(CO)(CBr)CBr,active
25,CCN(C#N)N=O,active

row,SMILES,outcome
1,CC1(C)[C@@H](O)CC[C@]2(C)[C@H]3C(=O)C=C4[C@@H]5C[C@@](C)(C(=O)O)CC[C@]5(C)CC[C@@]4(C)[C@]3(C)CC[C@@H]12,inactive
2,CCCCCCCCCCCCCCCC(=O)CC(=O)CCCCCCCCCCCCCCC,active
3,CNN,active
4,CN(N=O)C(=O)N[C@@H]1[C@@H](O)[C@H](O)[C@@H](CO)O[C@@H]1O,active
5,C1N2CN3CN1CN(C2)C3,inactive; active
6,S=C=NCCCCCCc1ccccc1,inactive
7,CC(=O)Nc1ccc(O)cc1,active; inactive
8,O=C1C(O)N=C(c2ccccc2F)c2cc(Cl)ccc2N1CCO (centres undefined),inactive
9,NC1=NCN([C@@H]2O[C@H](CO)[C@@H](O)[C@H]2O)C(=O)N1,inactive; active
10,CC(C)N(C(=O)SC/C(Cl)=C/Cl)C(C)C,active; inactive
11,CCN(Cc1cccc(S(=O)(=O)O)c1)c1ccc(C(=C2C=CC(=[N+](CC)Cc3cccc(S(=O)(=O)O)c3)C=C2)c2ccc(O)cc2S(=O)(=O)[O-])cc1,inactive
12,Nc1cc(Cl)c(-c2cc(Cl)c(N)cc2Cl)cc1Cl,inactive
13,Cn1c(N)nc2c3cccnc3ccc21,active; inactive
14,C/C=C1/C[C@@H](C)[C@](O)(CO)C(=O)OCC2=CCN3CC[C@@H](OC1=O)[C@@H]23,active
15,COc1cc2c(c3c1c(=O)c1ccccc1n3C)C=CC(C)(C)O2,active; inactive
16,O=C1C=C(N2CC2)C(=O)C(N2CC2)=C1N1CC1,active
17,C=CCl,active; inactive
18,CC1=C(C(=O)OCCN(Cc2ccccc2)c2ccccc2)C(c2cccc([N+](=O)[O-])c2)C(P2(=O)OCC(C)(C)CO2)=C(C)N1 (centres undefined),inactive
19,C/C=C1/C[C@@H](C)[C@@](C)(O)C(=O)OC/C2=C/CN(C)CC[C@@H](OC1=O)C2=O,active
20,CCCCN(N=O)C(N)=O,active
21,O=C(O)CCCC/C=C(\c1ccccc1)c1cccnc1,inactive; active
22,Brc1cc(Br)c2cccnc2c1,inactive; active
23,CC(F)(Cl)Cl,active
24,Cc1nc(N)cc2[nH]c3ccccc3c12,active
25,CC1(C)C(=O)Nc2ccc(C3=NNC(=O)CC3)cc21,active

row,SMILES,outcome
1,Clc1ccccc1Cl,inactive
2,C=C(C)[C@H]1Cc2c(ccc3c2O[C@@H]2COc4cc(OC)c(OC)cc4[C@@H]2C3=O)O1,inactive; active
3,CCSC[C@H](N)C(=O)O,inactive
4,ClC=C(Cl)Cl,active; inactive
5,CCCCCCCCCCCN(C)N=O,active; inactive
6,ClC(Cl)C(Cl)(Cl)Cl,active
7,O=NN1CCCN(N=O)C1,active
8,O.O.O.O.O=C([O-])CC(O)(CC(=O)[O-])C(=O)[O-].[Fe+3],inactive
9,CC1SC(C)N(N=O)C(C)S1 (centres undefined),active
10,NC(=O)c1ccccc1C(N)=O,inactive
11,O=[N+]([O-])c1cc([As](=O)(O)O)ccc1O,inactive
12,Nc1ccc2c(c1)C(=O)c1ccccc1C2=O,active
13,O=C1CCN([C@@H]2O[C@H](CO)[C@@H](O)[C@H]2O)C(=O)N1,inactive
14,Cc1ccc(/C(=C\CN2CCCC2)c2ccccn2)cc1,inactive
15,ClCCl,active
16,COP(=O)(OC)OC,active
17,CCOc1ccc(NC(N)=O)cc1,active
18,C=C1C[C@@]23CC[C@H]4[C@@](C)(CCC[C@@]4(C)C(=O)O[C@@H]4O[C@H](CO)[C@@H](O)[C@H](O)[C@H]4O)[C@@H]2CC[C@]1(O[C@@H]1O[C@H](CO)[C@@H](O)[C@H](O)[C@H]1O[C@@H]1O[C@H](CO)[C@@H](O)[C@H](O)[C@H]1O)C3,inactive
19,CCCCC(CC)COC(=O)CCCCC(=O)OCC(CC)CCCC (centres undefined),active
20,CN(C)C(=S)[S][Pb][S]C(=S)N(C)C,inactive
21,Cc1cccn2c1nc1ccc(N)nc12,active
22,CN=[N+](C)[O-],active
23,C1OC1C1CO1 (centres undefined),inactive
24,CCCCN(CC)C(=O)SCCC,inactive
25,C[C@@H]1O[C@@]2(CS1)CN1CCC2CC1,inactive

row,SMILES,outcome
1,COc1cc(-c2ccc(N)c(OC)c2)ccc1N,active; inactive
2,CCN(N=O)C(=O)NCC(C)=O,active
3,Nc1ccc(-c2ccccc2)cc1O,inactive
4,CCCCN(N=O)C(=N)N[N+](=O)[O-],inactive
5,NC(=S)Nc1cccc2ccccc12,inactive
6,CCCCCCCCCCCCN=C(N)N,inactive
7,O=C(O)c1ccc([N+](=O)[O-])cc1,active
8,CCN(N=O)C(=O)NCCO,active
9,CN[C@H]1CC[C@@H](c2ccc(Cl)c(Cl)c2)c2ccccc21,inactive
10,O=CNc1nc(-c2ccc([N+](=O)[O-])o2)cs1,active
11,N#CSCc1ccccc1,inactive
12,COC(=O)C1=CCCN(C)C1,active
13,COC(=O)[C@H]1[C@H]2C[C@@H]3c4[nH]c5cc(OC)ccc5c4CCN3C[C@H]2C[C@@H](OC(=O)c2cc(OC)c(OC)c(OC)c2)[C@@H]1OC,active
14,F[B-](F)(F)F,inactive
15,COc1cc(-c2ccc(N=Nc3c(S(=O)(=O)O)cc4cc(S(=O)(=O)O)cc(N)c4c3O)c(OC)c2)ccc1N=Nc1c(S(=O)(=O)O)cc2cc(S(=O)(=O)O)cc(N)c2c1O,active
16,S=C([S-])NCCNC(=S)[S-].[Mn+2],active
17,COc1c2occc2cc2ccc(=O)oc12,active
18,CCNNC(=O)[C@@H]1[C@H](c2cc(OC)c(OC)c(OC)c2)c2cc3c(cc2[C@H](O)[C@H]1CO)OCO3,inactive
19,C=CC(OCC)OCC,inactive
20,ClCC(Cl)Cl,active
21,CCC(=O)C(CC(C)N(C)C)(c1ccccc1)c1ccccc1 (centres undefined),inactive
22,C[C@]12CC[C@H](O)CC1=CC[C@@H]1[C@@H]2CC[C@]2(C)C(=O)CC[C@@H]12,active
23,Cc1cc(N=Nc2c(O)ccc3ccccc23)c(S(=O)(=O)O)cc1Cl,active; inactive
24,CCC[C@@H]1O[C@@H]2C[C@H]3[C@@H]4CCC5=CC(=O)C=C[C@]5(C)[C@H]4[C@@H](O)C[C@]3(C)[C@]2(C(=O)CO)O1,active; inactive
25,O=[N+]([O-])c1cc(N(CCO)CCO)ccc1NCCO,inactive

row,SMILES,outcome
1,CC(=O)[O][Sn]([c]1ccccc1)([c]1ccccc1)[c]1ccccc1,inactive; active
2,[Na+],inactive
3,C=CC(=O)NCO,active; inactive
4,CC(=O)NN,active
5,C=O,active
6,OC(Cn1cncn1)(Cn1cncn1)c1ccc(F)cc1F,active; inactive
7,O=P(OC(CCl)CCl)(OC(CCl)CCl)OC(CCl)CCl,active
8,OCc1ccco1,active
9,CN(C)CCOC(C)(c1ccccc1)c1ccccn1 (centres undefined),active; inactive
10,CC1CN(N=O)C(=O)O1 (centres undefined),active
11,CC(C)CN(N=O)C(N)=O,active
12,Cc1cc(N)ccc1N,inactive
13,Nc1cc(S(=O)(=O)O)cc2cc(S(=O)(=O)O)c(N=Nc3ccc(-c4ccc(N=Nc5c(S(=O)(=O)O)cc6cc(S(=O)(=O)O)cc(N)c6c5O)cc4)cc3)c(O)c12,active
14,C[C@]12C=CC(=O)C=C1CC[C@@H]1[C@@H]2[C@@H](O)C[C@@]2(C)[C@H]1CC[C@]2(O)C(=O)COC(=O)CCCc1ccc(N(CCCl)CCCl)cc1,active
15,CN(C)c1ccc(Cc2ccc(N(C)C)cc2)cc1,active
16,CCCC/C=N/N(C)C=O,active
17,Cn1cc(C(=O)O)c(=O)c2ccc(/C=C/c3ccc([N+](=O)[O-])o3)nc21,active; inactive
18,O=C(O)CCC(=O)O,inactive; active
19,Brc1cc(Br)c(-c2cc(Br)c(Br)cc2Br)cc1Br,active
20,CCNN,active
21,CC(C)(OCc1ccc(-c2ccc(Cl)cc2)cc1)C(=O)O,active
22,O=NN1CCCCC1C(=O)O (centres undefined),inactive
23,CN(C)NC(=O)CCC(=O)O,active
24,O=NN1CC=CCC1,active
